From patent US11192921B2 (priority 2017, dated 2021)
Several values for one entry are separate records, joined by “and”; a condition that tells them apart may be missing. Equal values may be shown once. No end group written: not given here.

Legend:
Female Kunming mice = assay type: in vivo; conditions: mouse, in vivo, ip
Kunming mice [1] = assay type: in vivo; conditions: mouse, in vivo
Kunming mice [2] = conditions: mouse, in vivo

GCCSTPPCAVLYC (cysteine pairing not given here) [Conotoxin, reference compound]
Pain threshold (Female Kunming mice): 27.29 ± 0.48 s and 29.32 ± 0.18 s and 24.1 ± 0.28 s and 30.39 ± 0.28 s and 27.39 ± 0.28 s and 26.21 ± 0.38 s and 24.63 ± 0.12 s
Pain threshold (tail flick) (Kunming mice [1]): 2.23 ± 0.18 s and 2.32 ± 0.28 s and 2.21 ± 0.12 s and 2.31 ± 0.18 s and 2.12 ± 0.12 s and 2.63 ± 0.12 s
cumulative foot licking time, Phase I (Kunming mice [2]): 50.38 ± 9.38
cumulative foot licking time, Phase II (Kunming mice [2]): 53.64 ± 15.32
